Patent US5324648A, “Substituted isocoumarins as serine protease inhibitors and anti-inflammatory agents” (Georgia Tech Research Corporation, priority 1992, dated 1994)
Where a name gives a salt, the structure may show the parent alone. Read-outs that look alike come from different tables or passages of the source.

Experiments:
cathepsin G = molecular target: T1, cathepsin G (Homo sapiens, UniProt P08311); assay: Inactivation of cathepsin G; type: biochemical; conditions: pH 7.5, 25° C, read-out: kobs/[I]
T1 construct: from tissue; host or cells: human leukocytes
T1 sequence (P08311 21-255): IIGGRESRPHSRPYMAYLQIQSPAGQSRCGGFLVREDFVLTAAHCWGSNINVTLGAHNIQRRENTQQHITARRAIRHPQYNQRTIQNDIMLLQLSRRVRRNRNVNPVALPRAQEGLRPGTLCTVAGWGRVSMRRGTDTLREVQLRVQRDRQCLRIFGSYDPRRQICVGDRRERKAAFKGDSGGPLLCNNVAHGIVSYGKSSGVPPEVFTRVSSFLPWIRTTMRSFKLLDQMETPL

human plasmin = molecular target: T2, human plasmin (Homo sapiens, UniProt P00747); assay: Inactivation rate of human plasmin; type: biochemical; conditions: Table VI; pH 7.5, 25° C; [I] 4 to 330 μM; read-out: kobs/[I]
T2 construct: human plasmin; from tissue; host or cells: human plasma
T2 sequence (P00747 581-810 limits assumed): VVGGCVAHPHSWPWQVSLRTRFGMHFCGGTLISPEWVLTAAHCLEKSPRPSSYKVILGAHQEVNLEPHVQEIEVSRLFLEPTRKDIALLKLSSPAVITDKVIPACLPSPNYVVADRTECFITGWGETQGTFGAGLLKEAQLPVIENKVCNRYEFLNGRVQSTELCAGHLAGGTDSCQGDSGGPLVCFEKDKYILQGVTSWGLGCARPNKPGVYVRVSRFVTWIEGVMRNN
T2 sequence (P00747 97-580 partner limits assumed): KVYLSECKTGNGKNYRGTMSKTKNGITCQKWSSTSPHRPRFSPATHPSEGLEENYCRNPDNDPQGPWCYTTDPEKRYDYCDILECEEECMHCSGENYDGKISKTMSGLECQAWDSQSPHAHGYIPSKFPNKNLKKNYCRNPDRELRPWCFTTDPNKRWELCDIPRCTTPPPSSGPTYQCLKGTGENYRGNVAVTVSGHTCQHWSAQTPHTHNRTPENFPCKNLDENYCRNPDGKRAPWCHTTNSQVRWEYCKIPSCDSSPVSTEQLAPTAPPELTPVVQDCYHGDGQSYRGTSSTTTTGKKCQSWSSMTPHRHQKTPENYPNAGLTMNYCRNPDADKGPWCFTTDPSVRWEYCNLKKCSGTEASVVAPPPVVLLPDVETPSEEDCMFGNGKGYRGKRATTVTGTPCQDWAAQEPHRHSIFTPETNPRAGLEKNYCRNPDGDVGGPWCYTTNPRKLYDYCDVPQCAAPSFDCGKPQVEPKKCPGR

[1] = molecular target: T3, human leukocyte elastase (HLE) (Homo sapiens, UniProt P08246); assay: Inactivation of human leukocyte elastase (HLE); type: biochemical; conditions: pH 7.5, 25° C, read-out: kobs/[I]
T3 construct: from tissue; host or cells: human leukocytes (from the name)
T3 sequence (P08246 30-267): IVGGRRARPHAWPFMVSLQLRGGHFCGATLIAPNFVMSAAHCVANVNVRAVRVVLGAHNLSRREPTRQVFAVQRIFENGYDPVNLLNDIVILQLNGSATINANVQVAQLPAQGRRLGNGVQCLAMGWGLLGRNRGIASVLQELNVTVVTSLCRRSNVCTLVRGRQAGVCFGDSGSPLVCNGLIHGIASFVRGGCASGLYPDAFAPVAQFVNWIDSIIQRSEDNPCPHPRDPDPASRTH
Procedure: (§15) Inactivation rates of serine proteases by substituted isocoumarins were measured by the incubation method. An aliquot of inhibitor (25 or 50 μl) in Me2 SO was added to a buffered enzyme solution (0.01-2.3 μM) to initiate the inactivation. Aliquots (50 μl) were withdrawn at various intervals and the residual enzymatic activity was measured. Me2 SO concentration in the reaction mixture was 8-12% (v/v). 0.1 Hepes, 0.01M CaCl2, pH 7.5 buffer was utilized for trypsin and coagulation enzymes. 0.1M Hepes, 0.5M NaCl, pH 7.5 was utilized for other serine proteases. […] Peptide thioesters or peptide nitroanilides with appropriate sequence were used as substrates for various serine proteases. All peptide thioester hydrolysis rates were measured with assay mixtures containing 4,4'-dithiodipyridine (ε324 =19800M^-1 cm^-1 ; Grasetti & Murray, Arch. Biochem. Biophys. 119, pp 41-49 (1967)). Peptide 4-nitroanilide nitroanilide hydrolysis was measured at 410 nm (ε410 =8800M^-1 cm^-1 ; Erlanger et al., Arch. Biochem. Biophys. 95, pp 271-278 (1961)). First order inactivation rate constant (kobs) were obtained from plots of ln (vt /vo) vs time, and the correlation coefficients were greater than 0.98.
(§16) ^a Inactivation rates were measured at 0.1M Hepes, 0.5 NaCl, pH 7.5,
(§17) 8-12% Me2 SO and 25° C. by incubation method.
(§18) ^a Inhibition rates were measured in 0.1M Hepes, 0.05M NaCl, pH 7.5
buffer, 8-9% Me2 SO and at 25° C.
(§19) ^a Inhibition constants were in 0.1M Hepes, 0.5M NaCl, pH 7.5 buffer,
8-9% Me2 SO and at 25° C.
(§20) ^a Inhibition rates were measured in 0.1M Hepes, 0.5M NaCl, 2.5%
Me2 SO, pH 7,5 and at 25° C.
(§21) ^a Inhibition was measured in 0.1M Hepes, 0.5M NaCl, pH 7.5 buffer,
(§22) 5-10% Me2 SO and at 25° C. Suc--Val--Pro--Phe--NA (0.48 mM)
(§23) was used as the substrate for chymotrypsin and cat G.
(§24) ^a Inhibition rates were measured in 0.1M Hepes, 0.5M NaCl, pH 7.5

[2] = molecular target: T4, porcine pancreatic elastase (PPE) (Sus scrofa, UniProt P00772); assay: Inactivation of porcine pancreatic elastase (PPE); type: biochemical; conditions: Table IV; pH 7.5, 25° C; [I] 0.01 to 0.51 mM; read-out: kobs/[I]
T4 construct: from tissue; host or cells: porcine pancreas (from the name)
T4 sequence (P00772 27-266): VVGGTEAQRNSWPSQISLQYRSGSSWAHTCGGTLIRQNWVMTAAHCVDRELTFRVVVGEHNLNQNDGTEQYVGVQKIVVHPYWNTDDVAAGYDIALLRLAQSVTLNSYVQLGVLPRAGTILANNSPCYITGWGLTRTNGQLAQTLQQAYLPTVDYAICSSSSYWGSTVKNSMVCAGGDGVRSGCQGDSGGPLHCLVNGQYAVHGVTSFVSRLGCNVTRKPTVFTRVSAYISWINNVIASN
Procedure: as §15, §16, §17, §18
buffer, 8-9% Me2 SO and at 25° C.
as §19
8-9% Me2 SO and at 25° C.
as §20
Me2 SO, pH 7,5 and at 25° C.
as §21, §22, §23, §24

bovine trypsin = molecular target: T5, bovine trypsin (Bos taurus, UniProt P00760); assay: Inactivation rate of bovine trypsin; type: biochemical; conditions: pH 7.5, 25° C, read-out: kobs/[I]
T5 sequence (P00760 24-246): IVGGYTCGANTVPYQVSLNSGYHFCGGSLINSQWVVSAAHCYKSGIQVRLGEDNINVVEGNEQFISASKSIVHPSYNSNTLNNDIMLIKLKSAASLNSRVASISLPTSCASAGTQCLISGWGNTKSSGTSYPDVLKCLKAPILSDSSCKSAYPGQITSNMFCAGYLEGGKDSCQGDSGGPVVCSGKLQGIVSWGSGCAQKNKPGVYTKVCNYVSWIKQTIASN
Procedure: (§1) Inactivation rates of serine proteases by substituted isocoumarins were measured by the incubation method. An aliquot of inhibitor (25 or 50 μl) in Me2 SO was added to a buffered enzyme solution (0.01-2.3 μM) to initiate the inactivation. Aliquots (50 μl) were withdrawn at various intervals and the residual enzymatic activity was measured. Me2 SO concentration in the reaction mixture was 8-12% (v/v). 0.1 Hepes, 0.01M CaCl2, pH 7.5 buffer was utilized for trypsin and coagulation enzymes. 0.1M Hepes, 0.5M NaCl, pH 7.5 was utilized for other serine proteases. The inhibitor concentrations are shown in all the tables. Peptide thioesters or peptide nitroanilides with appropriate sequence were used as substrates for various serine proteases. All peptide thioester hydrolysis rates were measured with assay mixtures containing 4,4'-dithiodipyridine (ε324 =19800M^-1 cm^-1; Grasetti & Murray, Arch. Biochem. Biophys. 119, pp 41-49 (1967)). Peptide 4-nitroanilide nitroanilide hydrolysis was measured at 410 nm (ε410 =8800M^-1 cm^-1; Erlanger et al., Arch. Biochem. Biophys. 95, pp 271-278 (1961)). First order inactivation rate constant (kobs) were obtained from plots of ln (vt /vo) vs time, and the correlation coefficients were greater than 0.98.
(§2) ^a Conditions were as 0.1M Hepes, 0.01M CaCl2, pH 7.5 and 8-12%
(§3) Me2 SO and 25° C. Rate constants were measured by incubation
(§4) method unless otherwise noted. An aliquot of inhibitor was added to an
(§5) enzyme solution and aliquots removed with time and assayed for remaining
(§6) enzymatic activity. Firstorder rate constants, kobs were obtained
(§7) from the plots of ln(vt /vo) versus time.
(§8) ^a Inhibition rates were measured in 0.1M Hepes, 0.01M CaCl2, pH
(§9) 7.5 buffer, 8% Me2 SO and at 25° C.

bovine thrombin = molecular target: T6, bovine thrombin (Bos taurus, UniProt P00735); assay: Inactivation rate of bovine thrombin; type: biochemical; conditions: pH 7.5, 25° C, read-out: kobs/[I]
T6 construct: bovine thrombin
Procedure: as §1, §2, §3, §4, §5, §6, §7, §8, §9

human thrombin = molecular target: T7, human thrombin (Homo sapiens, UniProt P00734); assay: Inactivation rate of human thrombin; type: biochemical; conditions: Table VIII; pH 7.5, 25° C; [I] 1.2-54 μM; read-out: kobs/[I]
T7 construct: human thrombin
Procedure: as §1, §8, §9

human factor Xa = molecular target: T8, human factor Xa (Homo sapiens, UniProt P00742); assay: Inactivation rate of human factor Xa; type: biochemical; conditions: Table VIII; pH 7.5, 25° C; [I] 3.6-44 μM; read-out: kobs/[I]
T8 construct: human factor Xa
T8 sequence (P00742 235-488 limits assumed): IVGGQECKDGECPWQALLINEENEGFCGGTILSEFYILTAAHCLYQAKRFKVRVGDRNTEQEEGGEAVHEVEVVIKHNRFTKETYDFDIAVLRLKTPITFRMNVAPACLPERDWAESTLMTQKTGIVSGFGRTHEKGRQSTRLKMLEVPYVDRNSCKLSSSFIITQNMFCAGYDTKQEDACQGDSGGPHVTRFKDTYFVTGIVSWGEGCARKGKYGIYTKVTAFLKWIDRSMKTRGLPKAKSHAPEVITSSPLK
T8 sequence (P00742 41-179 partner limits assumed): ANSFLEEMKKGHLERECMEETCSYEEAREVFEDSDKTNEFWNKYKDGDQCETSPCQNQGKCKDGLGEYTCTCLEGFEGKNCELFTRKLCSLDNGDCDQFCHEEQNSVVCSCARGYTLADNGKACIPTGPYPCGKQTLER
Procedure: as §1, §2, §3, §4, §5, §6, §7, §8, §9

human lung tryptase = assay: Inactivation rate of human lung tryptase; type: biochemical; conditions: Table IX; for kobs/[I]: pH 7.5, 25° C, [I] 0.42-0.47 μM
Procedure: as §1
^a Inactivation rates were measured at 0.1M Hepes, 0.5M NaCl, pH 7.5
buffer, 8% Me2 SO and 25° C.
as §8
(§10) 7.5 buffer for human plasmin; 25 mM Phosphate, 0.5M NaCl, 1 mM EDTA, pH
(§11) 7.5 buffer for rat skin tryptase and 0.1M Hepes, 0.5M NaCl, pH 7.5 for
(§12) human lung tryptase, human skin tryptase and rt-PA. All enzymes were
(§13) assayed with ZArg-SBzl (0.07 mM) in the presence of 4,4dithiodipyridine
(§14) (0.33 mM). Reaction mixtures contained 8% Me2 SO and assays were […]

[3] = Spontaneous hydrolysis in Hepes buffer; type: physicochemical; conditions: 0.1 Hepes, 0.5M NaCl, pH 7.5, 9% Me2SO, 25° C
Procedure: ^a Conditions were 0.1 Hepes, 0.5M NaCl, pH 7.5 and 9% Me2 SO at
25° C. Spontaneous hydrolysis rates were measured
spectrophotometrically by monitoring the decrease in absorbance due to th
isocoumarin ring system (wavelength 335-380 nm) using the firstorder rate

[4] = molecular target: recombinant human tissue plasminogen activator (Homo sapiens, UniProt P00750); assay: Inactivation rate of recombinant human tissue plasminogen activator; type: biochemical; conditions: for kinact/KI: pH 7.5, Table IX, pH 7.5, 25° C, [I] 3.5-5.0 μM, read-out: kobs/[I]
Chain of recombinant human tissue plasminogen activator (P00750 36-562): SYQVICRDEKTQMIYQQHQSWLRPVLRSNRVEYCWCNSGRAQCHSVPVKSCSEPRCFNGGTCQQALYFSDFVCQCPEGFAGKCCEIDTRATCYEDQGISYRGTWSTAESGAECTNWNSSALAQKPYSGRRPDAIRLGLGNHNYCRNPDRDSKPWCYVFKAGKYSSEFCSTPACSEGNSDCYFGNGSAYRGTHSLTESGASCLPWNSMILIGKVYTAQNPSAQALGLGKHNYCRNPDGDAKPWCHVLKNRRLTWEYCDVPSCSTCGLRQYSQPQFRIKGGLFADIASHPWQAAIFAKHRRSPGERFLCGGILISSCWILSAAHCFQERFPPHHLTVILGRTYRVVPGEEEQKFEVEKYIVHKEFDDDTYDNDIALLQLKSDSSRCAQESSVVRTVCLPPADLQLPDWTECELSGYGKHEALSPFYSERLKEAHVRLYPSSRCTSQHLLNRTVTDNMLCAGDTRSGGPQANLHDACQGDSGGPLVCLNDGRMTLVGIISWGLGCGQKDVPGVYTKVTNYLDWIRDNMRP
Procedure: as §1
^a Inactivation constants were measured at 0.1M Hepes, 0.5M NaCl (or
as §8, §10, §11, §12, §13, §14

chymotrypsin = chymotrypsin (Bos taurus, UniProt P00766); assay: Inactivation of chymotrypsin; type: biochemical, bovine; conditions: Table X, read-out: kobs/[I]
rat skin tryptase = molecular target: T9, rat skin tryptase (Rattus norvegicus, UniProt P27435); assay: Inactivation rate of rat skin tryptase; type: biochemical; conditions: pH 7.5, Table IX; pH 7.5, 25° C; [I] 0.42-0.51 μM; read-out: kobs/[I]
T9 construct: from tissue; host or cells: rat skin
T9 sequence (P27435 29-273): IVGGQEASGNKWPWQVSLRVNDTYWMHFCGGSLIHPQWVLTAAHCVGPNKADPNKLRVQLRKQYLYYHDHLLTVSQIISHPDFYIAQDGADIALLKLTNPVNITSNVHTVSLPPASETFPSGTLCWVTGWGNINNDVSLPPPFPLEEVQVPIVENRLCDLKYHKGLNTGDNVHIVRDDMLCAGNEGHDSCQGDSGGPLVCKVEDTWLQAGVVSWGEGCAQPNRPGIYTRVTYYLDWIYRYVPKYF
Procedure: as §1
^b Inactivation rates were measured at 25 mM phosphate, 0.5M NaCl, 1
mM EDTA, pH 7.5 buffer, 9% Me2 SO and 25° C.
as §8, §10, §11, §12, §13, §14

human factor XIIa = molecular target: T10, human factor XIIa (Homo sapiens, UniProt P00748); assay: Inactivation rate of human factor XIIa; type: biochemical; conditions: Table VIII; pH 7.5, 25° C; [I] 3.6-4.9 μM; read-out: kobs/[I]
T10 construct: human factor XIIa
T10 sequence (P00748 373-615 limits assumed): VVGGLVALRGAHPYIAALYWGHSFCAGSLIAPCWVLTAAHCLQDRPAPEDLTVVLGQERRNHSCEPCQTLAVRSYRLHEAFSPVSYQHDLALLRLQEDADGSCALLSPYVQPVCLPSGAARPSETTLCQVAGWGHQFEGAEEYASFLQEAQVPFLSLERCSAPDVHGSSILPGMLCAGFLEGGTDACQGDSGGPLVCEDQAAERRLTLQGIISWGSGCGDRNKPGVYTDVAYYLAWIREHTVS
T10 sequence (P00748 20-372 partner limits assumed): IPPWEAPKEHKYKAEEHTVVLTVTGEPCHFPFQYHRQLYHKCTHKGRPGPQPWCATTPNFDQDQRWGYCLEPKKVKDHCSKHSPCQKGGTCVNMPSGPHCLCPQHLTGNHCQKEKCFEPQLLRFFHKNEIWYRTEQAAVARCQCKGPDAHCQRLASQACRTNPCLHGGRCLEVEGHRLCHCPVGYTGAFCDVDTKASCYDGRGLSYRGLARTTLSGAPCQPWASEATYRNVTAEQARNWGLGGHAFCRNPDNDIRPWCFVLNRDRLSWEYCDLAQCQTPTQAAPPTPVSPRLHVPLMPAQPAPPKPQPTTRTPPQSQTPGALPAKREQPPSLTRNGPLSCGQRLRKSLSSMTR
Procedure: as §1, §2, §3, §4, §5, §6, §7, §8, §9

SMILES	kinact/KI (human thrombin)	kinact/KI (human factor Xa)	kinact/KI (bovine thrombin; Table VIII, [I] 1.2-54 μM)	t1/2 for spontaneous hydrolysis [3]	kinact/KI (cathepsin G; Table X, [I] 33-46 μM)	kinact/KI [4]	kinact/KI (rat skin tryptase)	kinact/KI (bovine trypsin; Table VIII, [I] 1.1-4.6 μM)	kobs/[I] (human lung tryptase)	other results
COc1oc(=O)c2cc(NC(=O)[C@H](C)N)ccc2c1Cl [7-(Alanylamino)-3-Methoxy-4-Chloroisocoumarin Hydrochloride]										kinact/KI (cathepsin G; Table IV, [I] 0.002 to 0.35 mM): 20 M⁻¹ s⁻¹; kinact/KI (human plasmin): 31 M⁻¹ s⁻¹; kinact/KI ([1]; Table IV, [I] 0.001 to 0.18 mM): 13500 M⁻¹ s⁻¹; kinact/KI [2]: 1610 M⁻¹ s⁻¹; kinact/KI (bovine trypsin; Table I, [I] 1 to 12 μM): 470 M⁻¹ s⁻¹
COc1oc(=O)c2cc(NC(=O)CN)ccc2c1Cl [7-(glycylamino)-4-chloro-3-methoxyisocoumarin]										kinact/KI (cathepsin G; Table IV, [I] 0.002 to 0.35 mM): 4.9 M⁻¹ s⁻¹; kinact/KI (human plasmin): 1470 M⁻¹ s⁻¹; kinact/KI ([1]; Table IV, [I] 0.001 to 0.18 mM): 7710 M⁻¹ s⁻¹; kinact/KI [2]: 1960 M⁻¹ s⁻¹; kinact/KI (bovine thrombin; Table I, [I] 0.3 to 400 μM): 51.5 M⁻¹ s⁻¹; kinact/KI (bovine trypsin; Table I, [I] 1 to 12 μM): 32100 M⁻¹ s⁻¹
C[C@H](N)C(=O)N[C@@H](C)C(=O)Nc1ccc2c(Cl)c(OCCSC(=N)N)oc(=O)c2c1 [Ala--Ala--NH-CiTEtOIC, 7-(L-alanyl-L-alanylamino)-4-chloro-3-(2-isothiureidoethoxy)isocoumarin]	880 M⁻¹ s⁻¹	1490 M⁻¹ s⁻¹	1070 M⁻¹ s⁻¹							
CC(C)(C)OC(=O)N[C@@H](Cc1ccccc1)C(=O)Nc1ccc2c(Cl)c(OCCSC(=N)N)oc(=O)c2c1 [Boc-L-Phe--NH-CiTEtOIC, 7-(N-t-butyloxycarbonyl-L-phenylalanylamino)-4-chloro-3-(2-isothiureidoethoxy)isocoumarin]	1140 M⁻¹ s⁻¹	1620 M⁻¹ s⁻¹	1090 M⁻¹ s⁻¹							
CC(=O)Nc1ccc2c(Cl)c(OCCCSC(=N)N)oc(=O)c2c1 [CH3 CONH-CiTPrOIC, 7-(acetylamino)-4-chloro-3-(3-isothiureidopropoxy)isocoumarin]	310 M⁻¹ s⁻¹		420 M⁻¹ s⁻¹	1.13 h	31 M⁻¹ s⁻¹	7000 M⁻¹ s⁻¹	99000 M⁻¹ s⁻¹	107000 M⁻¹ s⁻¹		percentage of inhibition (human lung tryptase; not time dependent, at 0.34-5.0 μM): 60%; kinact/KI ([1]; Table X, [I] 2.1-42 μM): 200 M⁻¹ s⁻¹; kinact/KI (chymotrypsin; pH 7.5, 25° C, [I] 0.9-43 μM): 5200 M⁻¹ s⁻¹
N=C(N)SCCOc1oc(=O)c2cc(NC(=O)[C@@H](N)Cc3ccccc3)ccc2c1Cl [L-Phe--NH-CiTEtOIC, 7-(L-phenylalanylamino)-4-chloro-3-(2-isothiureidoethoxy)isocoumarin]	1340 M⁻¹ s⁻¹	3770 M⁻¹ s⁻¹	1280 M⁻¹ s⁻¹		53 M⁻¹ s⁻¹	13000 M⁻¹ s⁻¹	650000 M⁻¹ s⁻¹		260,000 M^-1 s^-1	kinact/KI (human factor XIIa): 107000 M⁻¹ s⁻¹; kinact/KI (chymotrypsin; pH 7.5, 25° C, [I] 0.9-43 μM): 8400 M⁻¹ s⁻¹
N=C(N)SCCCOc1oc(=O)c2cc(NC(=O)CCc3ccccc3)ccc2c1Cl [PhCH2 CH2 CONH-CiTPrOIC, 7-(3-phenylpropionylamino)-4-chloro-3-(3-isothiureidopropoxy)isocoumarin]	630 M⁻¹ s⁻¹		820 M⁻¹ s⁻¹	1.1 h		15000 M⁻¹ s⁻¹	170000 M⁻¹ s⁻¹	87900 M⁻¹ s⁻¹	180,000 M^-1 s^-1	
N=C(N)SCCOc1oc(=O)c2cc(NC(=O)Cc3ccccc3)ccc2c1Cl [PhCH2 CONH-CiTEtOIC, 7-(phenylacetylamino)-4-chloro-3-(2-isothiureidoethoxy)isocoumarin]	6730 M⁻¹ s⁻¹	3630 M⁻¹ s⁻¹	15800 M⁻¹ s⁻¹				120000 M⁻¹ s⁻¹		110,000 M^-1 s^-1	percentage of inhibition ([4]; Table IX, not time dependent, at 0.34-5.0 μM): 64%; kinact/KI (human factor XIIa): 59000 M⁻¹ s⁻¹
N=C(N)SCCCOc1oc(=O)c2cc(NC(=O)Cc3ccccc3)ccc2c1Cl [PhCH2 CONH-CiTPrOIC, 7-(phenylacetylamino)-4-chloro-3-(3-isothiureidopropoxy)isocoumarin]	610 M⁻¹ s⁻¹		600 M⁻¹ s⁻¹	1.02 h	64 M⁻¹ s⁻¹	9000 M⁻¹ s⁻¹	145000 M⁻¹ s⁻¹	165000 M⁻¹ s⁻¹	140,000 M^-1 s^-1	kinact/KI ([1]; Table X, [I] 2.1-42 μM): 130 M⁻¹ s⁻¹; kinact/KI (chymotrypsin; pH 7.5, second order rate, equal molar enzyme and inhibitor): 260000 M⁻¹ s⁻¹
